In US10208033B2, “β-carboline, dihydro-β-carboline and tetrahydro-β-carboline alkaloid derivatives and preparation methods same and use in aspects of preventing and treating plant viruses, fungicides and insecticides” (NANKAI UNIVERSITY, priority 2013, dated 2019):
Counter-ions that a name gives are not always drawn. Like-named read-outs stand apart in the source and are kept apart here.

Tests used:
[1] = test system: Phytophthora capsici; assay: Fungicidal (bactericidal) activity in vitro, PDA colony diameter; format: cell-based; conditions: 50 mg/kg
[2] = test system: tobacco mosaic virus (TMV); assay: Anti-TMV in vitro effect (half-leaf soaking); format: cell-based, tobacco mosaic virus (host Nicotiana tabacum L.cv.Xanthi NN)
[3] = test system: armyworms; format: in vivo; conditions: concentration 600 mg/kg
[4] = test system: Rhizoctonia cereali; assay: Fungicidal (bactericidal) activity in vitro, PDA colony diameter; format: cell-based; conditions: 50 mg/kg
[5] = test system: Colletotrichum orbiculare; assay: as above; format: cell-based; conditions: 50 mg/kg
[6] = test system: cucumber fusarium wilt; assay: as above; format: cell-based; conditions: 50 mg/kg
[7] = test system: Botrytis cinerea; assay: as above; format: cell-based; conditions: 50 mg/kg
[8] = test system: mosquito larvae; assay: whole plant or invertebrate
Procedure: Experimental method of mosquito larvae: culex pipiens pallens, a normal colony raised indoors. Weigh about 5 mg of the compound for test, put it in a penicillin vial, add 5 mL of acetone (or an appropriate solvent), and shake and dissolve it to obtain a 1000 ppm mother solution. Pipette 0.5 mL of the mother solution, add it to a 100 mL beaker filled with 89.9 mL of water, select 10 mosquito larvae at the beginning of the fourth instar, and pour them to a beaker together with 10 mL of feeding solution. The concentration of the drug solution is 5 ppm. […] Use an aqueous solution containing 0.5 mL of test solvent as a blank.

[9] = test system: potato late blight; assay: microbe, parasite or virus in culture; format: cell-based
[10] = test system: corn borers
[11] = test system: tobacco mosaic virus (TMV); assay: Anti-TMV in vivo therapeutic effect; parameters: species or system tobacco mosaic virus (host Nicotiana tabacum L.cv.Xanthi NN)
[12] = test system: Rhizoctonia solani; assay: Fungicidal (bactericidal) activity in vitro, PDA colony diameter; format: cell-based; conditions: 50 mg/kg
[13] = test system: Fusarium fujikuroi; assay: as above; format: cell-based; conditions: 50 mg/kg
[14] = test system: tobacco mosaic virus (TMV); assay: Anti-TMV in vivo protective effect; parameters: species or system tobacco mosaic virus (host Nicotiana tabacum L.cv.Xanthi NN)
[15] = test system: Cercospora arachidicola; assay: Fungicidal (bactericidal) activity in vitro, PDA colony diameter; format: cell-based; conditions: 50 mg/kg
[16] = test system: Macrophoma kawatsukai; assay: as above; format: cell-based; conditions: 50 mg/kg
[17] = test system: Bipolaria maydis; assay: organism not typed; format: cell-based; conditions: 50 mg/kg
[18] = test system: cotton bollworms; assay: whole plant or invertebrate
Procedure: Experimental method of cotton bollworms: feed and drug mixing method: measure 3 mL of prepared solution and add it to about 27 g of newly prepared feed, thereby obtaining needed concentration through dilution by 10 times.

[19] = test system: Fusarium graminearumt; assay: microbe, parasite or virus in culture; format: cell-based; conditions: 50 mg/kg
[20] = test system: Alternaria solani; assay: Fungicidal (bactericidal) activity in vitro, PDA colony diameter; format: cell-based; conditions: 50 mg/kg
[21] = test system: tobacco mosaic virus (TMV); assay: Anti-TMV in vivo inactivation; parameters: species or system tobacco mosaic virus (host Nicotiana tabacum L.cv.Xanthi NN)
[22] = test system: Sclerotinia scleotiorum; assay: Fungicidal (bactericidal) activity in vitro, PDA colony diameter; format: cell-based; conditions: 50 mg/kg

SMILES | Bactericidal activity (%) Phytophthora capsici [1] [%] | Relative inhibition rate (%) In vitro activity ([2]; treatment dose 100 μg/mL) [%] | Relative inhibition rate (%) In vitro activity ([2]; treatment dose 500 μg/mL) [%] | Armyworm Mortality (%) [3] [%] | Bactericidal activity (%) Rhizoctonia cereali [4] [%] | Bactericidal activity (%) Colletotrichum orbiculare [5] [%] | Bactericidal activity (%) Cucumber fusarium wilt [6] [%] | Bactericidal activity (%) Botrytis cinerea [7] [%] | Bactericidal activity (%) potato late blight [9] [%] | Relative inhibition rate (%) In vivo therapy ([11]; treatment dose 100 μg/mL) [%] | Relative inhibition rate (%) In vivo therapy ([11]; treatment dose 500 μg/mL) [%] | Bactericidal activity (%) Rhizoctonia solani [12] [%] | Bactericidal activity (%) Fusarium fujikuroi [13] [%] | Relative inhibition rate (%) In vivo protection ([14]; treatment dose 100 μg/mL) [%] | Relative inhibition rate (%) In vivo protection ([14]; treatment dose 500 μg/mL) [%] | Bactericidal activity (%) Cercospora arachidicola [15] [%] | Bactericidal activity (%) Macrophoma kawatsukai [16] [%] | Bactericidal activity (%) Bipolaria maydis [17] [%] | Bactericidal activity (%) Fusarium graminearumt [19] [%] | Bactericidal activity (%) Alternaria solani [20] [%] | other results
COc1ccc(C=NNC(=O)[C@@H]2Cc3c([nH]c4ccccc34)[C@H](C)N2)cc1 [Ic-8, (1S, 3S)—N′-(4-methoxybenzylidene)-1-methyl-2,3,4,9-tetrahydropyridino [3,4-b] indol-3-formylhydrazine] | 73.7 | 28.7 | 62.5 | 20 | 84.3 | 55.6 | 23.1 | 59.1 | 52.0 | 34.8 | 66.4 | 59.2 | 64.3 | 31.8 | 70 | 64.7 | 72.2 | 68.0 | 65.5 | 30.0 | Mosquito larvae Mortality (%) ([8]; concentration 10 mg/kg, 24 h): 35%; Corn borer Mortality (%) ([10]; concentration 600 mg/kg): 15%; Cotton bollworm Mortality (%) ([18]; concentration 600 mg/kg): 35%; Relative inhibition rate (%) In vivo inactivation ([21]; treatment dose 100 μg/mL): 30.4%; Relative inhibition rate (%) In vivo inactivation ([21]; treatment dose 500 μg/mL): 69.1%; Bactericidal activity (%) Sclerotinia scleotiorum [22]: 94.1%
C/C=C/C=NNC(=O)[C@@H]1Cc2c([nH]c3ccccc23)[C@H](C)N1 [Ic-22, (1S, 3S)—N′-((E)-but-2-enylidene)-1-methyl-2,3,4,9-tetrahydropyridino [3,4-b] indol-3-formylhydrazine] | 31.6 | 0 | 35.2 | 40 | 64.7 | 22.2 | 26.9 | 40.9 | 32.0 | 0 | 33.2 | 6.6 | 14.3 | 6.7 | 37.1 | 29.4 | 52.8 | 36.0 | 20.7 | 30.0 | Mosquito larvae Mortality (%) ([8]; concentration 10 mg/kg, 24 h): 85%; Corn borer Mortality (%) ([10]; concentration 600 mg/kg): 50%; Cotton bollworm Mortality (%) ([18]; concentration 600 mg/kg): 20%; Relative inhibition rate (%) In vivo inactivation ([21]; treatment dose 100 μg/mL): 8.5%; Relative inhibition rate (%) In vivo inactivation ([21]; treatment dose 500 μg/mL): 47%; Bactericidal activity (%) Sclerotinia scleotiorum [22]: 41.2%
C[C@@H]1N[C@H](C(=O)NN=Cc2ccc3c(c2)OCCO3)Cc2c1[nH]c1ccccc21 [Ic-13] | 84.8 | 19.8 | 46.5 | 30 | 89.2 | 72.0 | 22.7 | 66.7 | 30.4 | 18.6 | 48.1 | 44.4 | 47.1 | 10.3 | 46 | 45.5 | 66.7 | 52.0 | 30.8 | 52.4 | Mosquito larvae Mortality (%) ([8]; concentration 10 mg/kg, 24 h): 60%; Corn borer Mortality (%) ([10]; concentration 600 mg/kg): 35%; Cotton bollworm Mortality (%) ([18]; concentration 600 mg/kg): 15%; Relative inhibition rate (%) In vivo inactivation ([21]; treatment dose 100 μg/mL): 15.2%; Relative inhibition rate (%) In vivo inactivation ([21]; treatment dose 500 μg/mL): 43.6%; Bactericidal activity (%) Sclerotinia scleotiorum [22]: 21.2%
COc1cccc(C=NNC(=O)[C@@H]2Cc3c([nH]c4ccccc34)[C@H](C)N2)c1 [Ic-9, (1S, 3S)—N′-(3-methoxybenzylidene)-1-methyl-2,3,4,9-tetrahydropyridino [3,4-b] indol-3-formylhydrazine] | 81.6 | 13.2 | 53.2 | 35 | 92.2 | 40.7 | 34.6 | 68.2 | 40.0 | 16.5 | 54 | 68.4 | 57.1 | 20.6 | 54.7 | 58.8 | 69.4 | 48.0 | 41.4 | 65.0 | Mosquito larvae Mortality (%) ([8]; concentration 10 mg/kg, 24 h): 75%; Corn borer Mortality (%) ([10]; concentration 600 mg/kg): 40%; Cotton bollworm Mortality (%) ([18]; concentration 600 mg/kg): 30%; Relative inhibition rate (%) In vivo inactivation ([21]; treatment dose 100 μg/mL): 22.1%; Relative inhibition rate (%) In vivo inactivation ([21]; treatment dose 500 μg/mL): 59.2%; Bactericidal activity (%) Sclerotinia scleotiorum [22]: 88.2%
C[C@@H]1N[C@H](C(=O)NN=Cc2cccnc2)Cc2c1[nH]c1ccccc21 [Ic-16, (1S, 3S)—N′-(pyridine-3-methylene)-1-methyl-2,3,4,9-tetrahydropyridino [3,4-b] indol-3-formylhydrazine] | 26.3 | 0 | 33.3 | 20 | 80.4 | 40.7 | 38.5 | 54.5 | 52.0 | 5.7 | 36.9 | 39.5 | 50.0 | 0 | 33.6 | 41.2 | 83.3 | 32.0 | 62.1 | 15.0 | Mosquito larvae Mortality (%) ([8]; in vivo): 40%; Corn borer Mortality (%) ([10]; in vivo): 30%; Cotton bollworm Mortality (%) ([18]; in vivo): 10%; Relative inhibition rate (%) In vivo inactivation ([21]; treatment dose 100 μg/mL): 11.2%; Relative inhibition rate (%) In vivo inactivation ([21]; treatment dose 500 μg/mL): 41%; Bactericidal activity (%) Sclerotinia scleotiorum [22]: 35.3%
CCCCOC(=O)[C@@H]1Cc2c([nH]c3ccccc23)[C@H](C)N1 [Ib-8, (1S, 3S)-1-methyl-2,3,4,9-tetrahydropyridino [3,4-b] indol-3-butyl formate] | 51.5 | 13.4 | 48.2 | 5 | 84.4 | 38.1 | 33.3 | 50.0 | 35.0 | 17.1 | 42.2 | 55.4 | 50.0 | 17.6 | 43.2 | 71.4 | 64.7 | 89.5 | 50.0 | 83.3 | Mosquito larvae Mortality (%) ([8]; concentration 10 mg/kg, 24 h): 10%; Corn borer Mortality (%) ([10]; concentration 600 mg/kg): 0%; Cotton bollworm Mortality (%) ([18]; concentration 600 mg/kg): 20%; Relative inhibition rate (%) In vivo inactivation ([21]; treatment dose 100 μg/mL): 20.3%; Relative inhibition rate (%) In vivo inactivation ([21]; treatment dose 500 μg/mL): 51.3%; Bactericidal activity (%) Sclerotinia scleotiorum [22]: 72.0%
